Source: ChEMBL document CHEMBL3351272, “Sequential synthesis of amino-1,4-naphthoquinone-appended triazoles and triazole-chromene hybrids and their antimycobacterial evaluation” (Eur J Med Chem, 2014)

These molecules were tested on Mycobacterium tuberculosis (assay: Antimycobacterial activity against Mycobacterium tuberculosis H37Rv assessed as growth inhibition by microdilution AlamarBlue broth assay).
Type: functional, organism-based

| Structure (SMILES) | IC90 | MIC | IC50 |
| --- | --- | --- | --- |
| NCC[C@H](O)C(=O)N[C@@H]1C[C@H](N)[C@@H](O[C@H]2O[C@H](CN)[C@@H](O)[C@H](O)[C@H]2O)[C@H](O)[C@H]1O[C@H]1O[C@H](CO)[C@@H](O)[C@H](N)[C@H]1O [AMIKACIN] | 0.08 µM | 0.16 µM |  |
| CCOC(=O)Cn1cc(CN(C2=CC(=O)c3ccccc3C2=O)c2ccc(F)cc2)nn1 | 36.5 µM | 50 µM | 17.2 µM |
| N#CCn1cc(CN(C2=CC(=O)c3ccccc3C2=O)c2ccc(F)cc2)nn1 | 6.13 µM | 15 µM | 2.81 µM |
| C=CCn1cc(CN(C2=CC(=O)c3ccccc3C2=O)c2ccc(F)cc2)nn1 | 14.6 µM | 25 µM | 5.87 µM |
| Cc1ccc(N(Cc2cn(-c3cc4ccccc4oc3=N)nn2)C2=CC(=O)c3ccccc3C2=O)c(C)c1 | 55.1 µM | 100 µM | 21.6 µM |
| N[C@@H]1CONC1=O [CYCLOSERINE] |  | 25 µM |  |
| O=C1C=C(N(Cc2cn(C3=CC(=O)c4ccccc4C3=O)nn2)c2ccc(Br)cc2)C(=O)c2ccccc21 | 46.5 µM | 50 µM | 19.2 µM |
| CCOC(=O)Cn1cc(CN(C2=CC(=O)c3ccccc3C2=O)c2ccc(Cl)cc2)nn1 | 7.86 µM | 25 µM | 3.28 µM |
| C=CCn1cc(CN(C2=CC(=O)c3ccccc3C2=O)c2ccccc2C)nn1 | 34.3 µM | 50 µM | 15.3 µM |
| Cc1ccc(N(Cc2cn(C3=CC(=O)c4ccccc4C3=O)nn2)C2=CC(=O)c3ccccc3C2=O)cc1 | 37.7 µM | 50 µM | 28.6 µM |
| O=C1C=C(N(Cc2cn(Cc3ccccc3)nn2)c2ccc(Cl)cc2Cl)C(=O)c2ccccc21 | 9.97 µM | 25 µM | 5.38 µM |
| N=c1oc2ccc(Cl)cc2cc1-n1cc(CN(C2=CC(=O)c3ccccc3C2=O)c2ccc(F)cc2)nn1 | 9.86 µM | 25 µM | 3.18 µM |
| O=C1C=C(N(Cc2cn(Cc3ccccc3)nn2)c2ccccc2Cl)C(=O)c2ccccc21 | 44.3 µM | 50 µM | 15.3 µM |
| CCOC(=O)Cn1cc(CN(C2=CC(=O)c3ccccc3C2=O)c2ccc(Br)cc2)nn1 | 16.4 µM | 25 µM | 8.46 µM |
| Cc1ccccc1N(Cc1cn(CC(=O)c2ccccc2)nn1)C1=CC(=O)c2ccccc2C1=O | 37.9 µM | 50 µM | 19.1 µM |
| COc1cccc(N(Cc2cn(Cc3ccccc3)nn2)C2=CC(=O)c3ccccc3C2=O)c1 | 36.4 µM | 50 µM | 24.9 µM |
| Cc1ccc(N(Cc2cn(CC(=O)c3ccccc3)nn2)C2=CC(=O)c3ccccc3C2=O)cc1 | 28.9 µM | 50 µM | 14 µM |
| CC[C@@H](CO)NCCN[C@@H](CC)CO [ETHAMBUTOL] |  | 12.5 µM | < 1.56 µM |
| Cc1ccccc1N(Cc1cn(CC#N)nn1)C1=CC(=O)c2ccccc2C1=O | 19.8 µM | 50 µM | 10.6 µM |
| O=C1C=C(N(Cc2cn(Cc3ccccc3)nn2)c2ccc(C(F)(F)F)cc2)C(=O)c2ccccc21 | 4.6 µM | 10 µM | 1.87 µM |
| CCOC(=O)Cn1cc(CN(C2=CC(=O)c3ccccc3C2=O)c2ccc(C)cc2)nn1 | 27.9 µM | 50 µM | 11.9 µM |
| N=c1oc2ccccc2cc1-n1cc(CN(C2=CC(=O)c3ccccc3C2=O)c2ccc(F)cc2)nn1 | 17.7 µM | 25 µM | 8.57 µM |

| Structure (SMILES) | IC90 | MIC | IC50 |
| --- | --- | --- | --- |
| Cc1ccc(N(Cc2cn(-c3cc4ccccc4oc3=N)nn2)C2=CC(=O)c3ccccc3C2=O)cc1 | 47.6 µM | 50 µM | 23.9 µM |
| Cc1ccc(N(Cc2cn(Cc3ccccc3)nn2)C2=CC(=O)c3ccccc3C2=O)cc1 | 38.9 µM | 50 µM | 17 µM |
| COc1cccc(N(Cc2cn(-c3cc4ccccc4oc3=N)nn2)C2=CC(=O)c3ccccc3C2=O)c1 | 37.7 µM | 50 µM | 18.6 µM |
| CCOC(=O)Cn1cc(CN(C2=CC(=O)c3ccccc3C2=O)c2cccc(OC)c2)nn1 | 27.7 µM | 50 µM | 18.6 µM |
| C=CCn1cc(CN(C2=CC(=O)c3ccccc3C2=O)c2cccc(OC)c2)nn1 | 36.4 µM | 50 µM | 24.9 µM |
| COc1cccc(N(Cc2cn(CC#N)nn2)C2=CC(=O)c3ccccc3C2=O)c1 | 25.5 µM | 50 µM | 16.3 µM |
| O=C1C=C(N(Cc2cn(Cc3ccccc3)nn2)c2ccc(Cl)cc2)C(=O)c2ccccc21 | 15.1 µM | 25 µM | 2.58 µM |
| C=CCn1cc(CN(C2=CC(=O)c3ccccc3C2=O)c2ccc(Cl)cc2)nn1 | 45.1 µM | 50 µM | 21.6 µM |
| C=CCn1cc(CN(C2=CC(=O)c3ccccc3C2=O)c2ccccc2)nn1 | 55.4 µM | 100 µM | 25.5 µM |
| N#CCn1cc(CN(C2=CC(=O)c3ccccc3C2=O)c2ccccc2Cl)nn1 | 25.9 µM | 50 µM | 11.2 µM |
| C=CCn1cc(CN(C2=CC(=O)c3ccccc3C2=O)c2ccccc2Cl)nn1 | 12 µM | 25 µM | 6.38 µM |
| CCOC(=O)Cn1cc(CN(C2=CC(=O)c3ccccc3C2=O)c2ccccc2Cl)nn1 | 36.5 µM | 50 µM | 18.3 µM |
| O=C1C=C(N(Cc2cn(Cc3ccccc3)nn2)c2ccc(Br)cc2)C(=O)c2ccccc21 | 47.9 µM | 100 µM | 28.7 µM |
| N=c1oc2ccccc2cc1-n1cc(CN(C2=CC(=O)c3ccccc3C2=O)c2ccccc2Cl)nn1 | 36.5 µM | 50 µM | 27.2 µM |
| CCc1nc(N)nc(N)c1-c1ccc(Cl)cc1 [PYRIMETHAMINE] | 75 µM | 100 µM | 37.4 µM |
| O=C1C=C(N(Cc2cn(C3=CC(=O)c4ccccc4C3=O)nn2)c2ccc(Cl)cc2)C(=O)c2ccccc21 | 16.5 µM | 25 µM | 7.2 µM |
| N#CCn1cc(CN(C2=CC(=O)c3ccccc3C2=O)c2ccccc2)nn1 | 21.9 µM | 25 µM | 9.95 µM |
| NNC(=O)c1ccncc1 [ISONIAZID] | 0.29 µM | 0.31 µM |  |
| O=C(Cn1cc(CN(C2=CC(=O)c3ccccc3C2=O)c2ccc(Cl)cc2Cl)nn1)c1ccccc1 | 27.9 µM | 50 µM | 13.3 µM |
| Cc1ccc(N(Cc2cn(-c3cc4cc(Br)ccc4oc3=N)nn2)C2=CC(=O)c3ccccc3C2=O)cc1 | 44.6 µM | 100 µM | 21.9 µM |
| Cc1ccc2oc(=N)c(-n3cc(CN(C4=CC(=O)c5ccccc5C4=O)c4ccccc4)nn3)cc2c1 | 27.7 µM | 50 µM | 18.6 µM |

What follows are molecules tested on Mycobacterium tuberculosis (assay: Ratio of cycloserine IC50 to compound IC50 for Mycobacterium tuberculosis H37Rv assessed as growth inhibition by microdilution AlamarBlue broth assay).
Type: functional

| Structure (SMILES) | Ratio IC50 |
| --- | --- |
| O=C1C=C(N(Cc2cn(Cc3ccccc3)nn2)c2ccc(C(F)(F)F)cc2)C(=O)c2ccccc21 | 6 |

What follows are molecules tested on Mycobacterium tuberculosis (assay: Ratio of pyrimethamine IC50 to compound IC50 for Mycobacterium tuberculosis H37Rv assessed as growth inhibition by microdilution AlamarBlue broth assay).
Type: functional

| Structure (SMILES) | Ratio IC50 |
| --- | --- |
| O=C1C=C(N(Cc2cn(Cc3ccccc3)nn2)c2ccc(C(F)(F)F)cc2)C(=O)c2ccccc21 | 20 |
